Test results reported in patent US20210299079A1, “MONOMETHYL FUMARATE-CARRIER CONJUGATES AND METHODS OF THEIR USE” (Flagship Pioneering Innovations V, Inc., priority 2018, published 2021).

Tests used:
Type in all cases: cell-based
TNFα = experiment: Cytokine Release from Human PBMCs: TNFα; details: LPS, 24 hours, Concentration 100 μM
Procedure: (§1) Human donor blood (8 mL) was collected in sodium citrate CPT tubes and centrifuged at 1,600×g for 20 minutes at room temperature. Buffy coat containing PBMCs was collected and transferred to a 50 mL conical tube containing 30 mL of RPMI-1640 medium at room temperature (supplemented with penicillin-streptomycin). PBMCs samples were centrifuged at 400×g for 10 minutes at 10° C. The pelleted PBMCs were washed twice in 10 ml of RPMI-1640 medium (supplemented with penicillin-streptomycin), then resuspended in RPMI-1640 medium (supplemented with penicillin-streptomycin, fetal bovine serum, and L-Glutamine). PBMCs were filtered through a 70 micron mesh to remove any cellular debris. […] PBMCs in a 96-well plate were rested for 30 minutes in a 37° C., 5% CO2 incubator, then subsequently treated with 10 μI of indicated compound. After 2 hours 10 μL of LPS (0111:64) 1 mg/mL was added to test wells. After 24 hours of incubation at 37° C., 5% CO2, 100 μL of cell supernatant was collected and transferred to a 96-well plate (non-tissue treated, flat bottom). The plate was centrifuged at 350×g for 5 minutes at room temperature, and then the clear supernatant transferred to a new 96-well plate (non-tissue treated, flat bottom). The remaining cells were tested for viability using CellTiter-Glo® Luminescent Cell Viability Assay (Promega). The supernatant was analyzed for TNFα, IL-6 and IL-1β (kit […] Systems), using Luminex Immunoassay Technology (MAGPIX System).

IL-8 = experiment: Neutrophil Chemokine Production Assay: IL-8; details: human neutrophils, 12 h
In short: (§2)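 Neutrophils were isolated from human blood by Histopaque-1077 separation and RBC lysis, then plated at 2.0×10^5 cells/well in RPMI complete. Cells were stimulated with LPS (10 μL of a 2 μg/mL solution) for 12 h at 37 °C. Supernatant chemokines were measured by Luminex multiplex, averaging three data points from two donors.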

MIP-1β = experiment: Neutrophil Chemokine Production Assay: MIP-1β; details: human neutrophils, 12 h
In short: as §2

Caco-2 colonocytes = experiment: Human Caco-2 Barrier Integrity Assay, Study 1; details: Caco-2, + cytokines (TNFα, IFNγ, IL-1β), 48 hours
Procedure: Caco-2 colonocytes were maintained at 37° C. and 5% CO2 in Dulbecco's Modified Eagle Medium (DMEM) and supplemented with 10% FBS, 1% NEAA, 1% penicillin-streptomycin. At 70-80% confluency, cells were trypsinized and seeded in 0.4 cm^2 transwell collagen I coated membranes with supplemented DMEM in both apical and basolateral compartments. […] After 48 hours, TEER readings were taken again and viability was measured by CellTiter 96® AQueous One Solution Cell Proliferation Assay (Promega).

MIP-1α = experiment: Neutrophil Chemokine Production Assay: MIP-1α; details: human neutrophils, 12 h
In short: as §2

IL-6 = experiment: Cytokine Release from Human PBMCs: IL-6; details: LPS, 24 hours, Concentration 100 μM
Procedure: as §1

CCC(=O)O [propionate]
TNFα % of DMSO control (TNFα): + ((+) 50% > <90% DMSO)
% IL-8 (Vehicle + LPS = 100%) (IL-8; Conc. 500.0 μM): − (− = >90% Vehicle)
% IL-8 (Vehicle + LPS = 100%) (IL-8; Conc. 1000.0 μM): ++ (++ = <70% Vehicle)
% IL-8 (Vehicle + LPS = 100%) (IL-8; Conc. 3000.0 μM): +++ (+++ = <50% Vehicle)
% MIP-1β (DMSO + LPS = 100%) (MIP-1β; Conc. 500.0 μM): +++ (+++ = <50% Vehicle)
% MIP-1β (DMSO + LPS = 100%) (MIP-1β; Conc. 1000.0 μM): +++ (+++ = <50% Vehicle)
% MIP-1β (DMSO + LPS = 100%) (MIP-1β; Conc. 3000.0 μM): +++ (+++ = <50% Vehicle)
% Change in TEER from DMSO (Caco-2 colonocytes; 1 mM): + (125% > <150%: +)
% Change in TEER from DMSO (Caco-2 colonocytes; 3 mM): ++ (150% > <200%: ++)
% MIP-1α (Vehicle + LPS = 100%) (MIP-1α; Conc. 500.0 μM): +++ (+++ = <50% Vehicle)
% MIP-1α (Vehicle + LPS = 100%) (MIP-1α; Conc. 1000.0 μM): +++ (+++ = <50% Vehicle)
% MIP-1α (Vehicle + LPS = 100%) (MIP-1α; Conc. 3000.0 μM): +++ (+++ = <50% Vehicle)
IL6 % DMSO control (IL-6): + ((+) 50% > <90% DMSO)
